Measured values taken from US20240123045A1, “NONAUTOLOGOUS MULTI-STRESSED CANCER CELLS AND USES THEREOF FOR VACCINATING AND TREATING CANCERS” (BRENUS PHARMA, priority 2021, published 2024).
Like-named read-outs stand apart in the source and are kept apart here.

Columns and labels:
HCT-116 = assay: Cytotoxic assay (IC50) in HCT-116; type: cell-based, human
Source text: (§1) DS-B: cells were exposed to a chemical stress comprising a chemical stimulation with chemotherapeutic agents commonly used for the colorectal cancer: 5-FU (Sigma, F6627), oxaliplatin (Sigma, Y0000271) or SN-38 (7-ethyl-10-hydroxy-camptothecin) (Sigma, H0165). In particular, the association of a chemotherapeutic agent with each cell line was based on literature assumptions (Table 3), and further on the degree of resistance of the cell line to each chemotherapeutic agent. For each cell line, this resistance level to each chemotherapeutic agent was assessed by determining the half maximal inhibitory concentration (IC50) in a cytotoxic assay.

HT-29 = assay: Cytotoxic assay (IC50) in HT-29; type: cell-based, human
Source text: as §1

SW480 = assay: Cytotoxic assay (IC50) in SW480; type: cell-based; conditions: Homo sapiens, SW480 cell line
Source text: as §1

CD66 (CEA) = assay: FACS marker expression: CD66; type: cell-based, human
Experimental: (§2) A comparison of marker expression was carried out to validate each DS-A and DS-B.

CD243 (MDR-1) = assay: FACS marker expression: CD243; type: cell-based, human; conditions: LoVo cells treated with 5-FU
Experimental: as §2
(§3) Finally, the vaccine composition (DP or “STC-1010”) could be formulated by pooling all six DS (3 DS-A—one for each cell line; and 3 DS-B—one for each cell line) in 100 μL doses (each comprising 3 million cells).

[1] = tested on: colorectal human cell lines; conditions: according to the literature; cited from earlier work
LoVo = assay: Cytotoxic assay (IC50) in LoVo; type: cell-based, human
Source text: as §1

CD107 (LAMP-1) = assay: FACS marker expression: CD107; type: cell-based, human; conditions: HT-29 cells treated with oxaliplatin
Experimental: as §2, §3

CD95 (FAS receptor) = assay: FACS marker expression: CD95; type: cell-based, human; conditions: HT-29 cells treated with oxaliplatin
Experimental: as §2

CD54 (ICAM-1) = assay: FACS marker expression: CD54; type: cell-based, human; conditions: HT-29 cells treated with oxaliplatin
Experimental: as §2

[2] = HCT-116 cell line, cytotoxic assay, read-out: IC50
[3] = HT-29 cell line, cytotoxic assay, read-out: IC50
[4] = LoVo cell line, cytotoxic assay, read-out: IC50

SMILES: O=c1[nH]cc(F)c(=O)[nH]1 [5-FU, fluorouracil]
- IC50 (HCT-116; Homo sapiens, HCT-116): 17000 nM
- IC50 (HT-29; Homo sapiens, HT-29): 3600 nM
- IC50 (SW480): 23100 nM
- CD66 expression as compared to unstressed cells (CD66 (CEA); LoVo cells treated with 5-FU): overexpression
- CD243 expression as compared to unstressed cells (CD243 (MDR-1)): overexpression
- Resistance cell lines [1]: HCT-116, HT-29, SW48, SW480
- IC50 (LoVo; Homo sapiens, LoVo): 2400 nM

SMILES: O=C1[O][Pt]2([NH][C@@H]3CCCC[C@H]3[NH]2)[O]C1=O [Oxaliplatin, oxaliplatin]
- IC50 (HCT-116; [2]): 600 nM
- IC50 (HT-29; [3]): 460 nM
- CD107 expression as compared to unstressed cells (CD107 (LAMP-1)): overexpression
- Resistance cell lines [1]: HCT-116, HT-29, LoVo, SW48
- IC50 (LoVo; [4]): 1100 nM
- CD95 expression as compared to unstressed cells (CD95 (FAS receptor)): overexpression
- CD54 expression as compared to unstressed cells (CD54 (ICAM-1)): overexpression

SMILES: CCc1c2c(nc3ccc(O)cc13)-c1cc3c(c(=O)n1C2)COC(=O)[C@]3(O)CC [SN-38, 7-ethyl-10-hydroxy-camptothecin]
- IC50 (HCT-116; [2]): 50 nM
- IC50 (HT-29; [3]): 130 nM
- CD66 expression as compared to unstressed cells (CD66 (CEA); HCT-116 cells treated with SN-38): overexpression
- Resistance cell lines [1]: HCT-116, HT-29, SW48
- IC50 (LoVo; [4]): 22 nM
